Laboratory results as given in patent US20230263825A1, “ANTI-CANCER ACTIVITY OF PERBORATE SALTS” (priority 2020, published 2023).

Assay: Toxicology in rats, oral, histopathology
Type: in vivo
Settings: rat, in vivo, po
Source text: After 32 days, the rats were sacrificed and their organs were examined under a microscope.

O.O.O.O.[Na+].[O-]B1OO1 [sodium perborate tetrahydrate]
0/10: LUNG Lymphocytic infiltration, No Exam (1 mg/kg) | LUNG Notable or abnormal, No Exam (1 mg/kg) | LUNG Pulmonary edema, No Exam (1 mg/kg) | PANCREAS Notable or abnormal, No Exam (1 mg/kg) | SPLEEN Notable or abnormal, No Exam (1 mg/kg) | STOMACH Notable or abnormal, No Exam (1 mg/kg) | HEART Notable or abnormal, No Exam (2 mg/kg) | INTESTINE, Large Notable or abnormal, No Exam (2 mg/kg) | INTESTINE, Small Notable or abnormal, No Exam (2 mg/kg) | KIDNEY Edema, No Exam (2 mg/kg) | KIDNEY Notable or abnormal, No Exam (2 mg/kg) | LIVER Fattening, No Exam (2 mg/kg) | LIVER Infiltration, No Exam (2 mg/kg) | LIVER Notable or abnormal, No Exam (2 mg/kg) | LUNG Lymphocytic infiltration, No Exam (2 mg/kg) | LUNG Notable or abnormal, No Exam (2 mg/kg) | LUNG Pulmonary edema, No Exam (2 mg/kg) | PANCREAS Notable or abnormal, No Exam (2 mg/kg) | SPLEEN Notable or abnormal, No Exam (2 mg/kg) | STOMACH Notable or abnormal, No Exam (2 mg/kg) | HEART Notable or abnormal, No Exam (4 mg/kg) | INTESTINE, Large Notable or abnormal, No Exam (4 mg/kg) | INTESTINE, Small Notable or abnormal, No Exam (4 mg/kg)
10/10: LIVER Within normal limits, No Exam (1 mg/kg) | LUNG Within normal limits, No Exam (1 mg/kg) | PANCREAS Within normal limits, No Exam (1 mg/kg) | SPLEEN Within normal limits, No Exam (1 mg/kg) | STOMACH Within normal limits, No Exam (1 mg/kg) | HEART Within normal limits, No Exam (2 mg/kg) | INTESTINE, Large Within normal limits, No Exam (2 mg/kg) | INTESTINE, Small Within normal limits, No Exam (2 mg/kg) | KIDNEY Within normal limits, No Exam (2 mg/kg) | LIVER Within normal limits, No Exam (2 mg/kg) | LUNG Within normal limits, No Exam (2 mg/kg) | PANCREAS Within normal limits, No Exam (2 mg/kg) | SPLEEN Within normal limits, No Exam (2 mg/kg) | STOMACH Within normal limits, No Exam (2 mg/kg) | HEART Within normal limits, No Exam (4 mg/kg) | INTESTINE, Large Within normal limits, No Exam (4 mg/kg) | INTESTINE, Small Within normal limits, No Exam (4 mg/kg)
100%: LIVER Within normal limits, % (1 mg/kg) | LUNG Within normal limits, % (1 mg/kg) | PANCREAS Within normal limits, % (1 mg/kg) | SPLEEN Within normal limits, % (1 mg/kg) | STOMACH Within normal limits, % (1 mg/kg) | HEART Within normal limits, % (2 mg/kg) | INTESTINE, Large Within normal limits, % (2 mg/kg) | INTESTINE, Small Within normal limits, % (2 mg/kg) | KIDNEY Within normal limits, % (2 mg/kg) | LIVER Within normal limits, % (2 mg/kg) | LUNG Within normal limits, % (2 mg/kg) | PANCREAS Within normal limits, % (2 mg/kg) | SPLEEN Within normal limits, % (2 mg/kg) | STOMACH Within normal limits, % (2 mg/kg) | HEART Within normal limits, % (4 mg/kg) | INTESTINE, Large Within normal limits, % (4 mg/kg) | INTESTINE, Small Within normal limits, % (4 mg/kg)
0%: LUNG Lymphocytic infiltration, % (1 mg/kg) | LUNG Notable or abnormal, % (1 mg/kg) | LUNG Pulmonary edema, % (1 mg/kg) | PANCREAS Notable or abnormal, % (1 mg/kg) | SPLEEN Notable or abnormal, % (1 mg/kg) | STOMACH Notable or abnormal, % (1 mg/kg) | HEART Notable or abnormal, % (2 mg/kg) | INTESTINE, Large Notable or abnormal, % (2 mg/kg) | INTESTINE, Small Notable or abnormal, % (2 mg/kg) | KIDNEY Edema, % (2 mg/kg) | KIDNEY Notable or abnormal, % (2 mg/kg) | LIVER Fattening, % (2 mg/kg) | LIVER Infiltration, % (2 mg/kg) | LIVER Notable or abnormal, % (2 mg/kg) | LUNG Lymphocytic infiltration, % (2 mg/kg) | LUNG Notable or abnormal, % (2 mg/kg) | LUNG Pulmonary edema, % (2 mg/kg) | PANCREAS Notable or abnormal, % (2 mg/kg) | SPLEEN Notable or abnormal, % (2 mg/kg) | STOMACH Notable or abnormal, % (2 mg/kg) | HEART Notable or abnormal, % (4 mg/kg) | INTESTINE, Large Notable or abnormal, % (4 mg/kg) | INTESTINE, Small Notable or abnormal, % (4 mg/kg) | KIDNEY Edema, % (4 mg/kg)
